Measured values published in ChEMBL document CHEMBL1154198, “Chemical genetics of Plasmodium falciparum” (Nature, 2010).

What was measured:
[1] = test system: Plasmodium falciparum; experiment: ST_JUDE: Plasmodium falciparum K1 EC50 (uM) as measured by SYBR green dye; assay type: functional, organism-based
[2] = test system: Plasmodium falciparum; experiment: ST_JUDE: Plasmodium falciparum 3D7 EC50 (uM) as measured by SYBR green dye; assay type: functional, organism-based

| Structure (SMILES) | EC50 [1] | EC50 [2] |
| --- | --- | --- |
| CCCCc1ccc(NC(=O)Cc2csc(NC(=O)c3cc(OC)cc(OC)c3)n2)cc1 | > 15 µM | > 15 µM |
| CC(NC(=S)Nc1cccc([N+](=O)[O-])c1)c1ccc(C(C)(C)C)cc1 (configuration not stated) | 6.22 µM | > 15 µM |
| CCOC(=O)c1ccc(Nc2nc3nonc3nc2O)cc1 | > 15 µM | > 15 µM |
| CCCOC(=O)c1ccc(NC(=O)NC2CCCCC2)cc1 | > 15 µM | > 15 µM |
| CCOC(=O)C1=C(C)N=c2s/c(=C\c3cc(Cl)ccc3O)c(=O)n2C1c1ccc(OC)cc1 (configuration not stated) | > 15 µM | > 15 µM |
| Cc1ccc(N2C(=O)CC(Sc3nccc(C)n3)C2=O)cc1 (configuration not stated) | > 15 µM | > 15 µM |
| CCOc1ccc(N(C(C)=O)C2=C(N3CCCCC3)C(=O)c3ccccc3C2=O)cc1 | > 15 µM | 0.542 µM |
| CC(Cc1ccccc1)NC1=NS(=O)(=O)c2cc([N+](=O)[O-])ccc21 (configuration not stated) | > 15 µM | 1.58 µM |
| CC(C)Cc1cc(C(=O)NCC2Cc3cc(Cl)cc(-c4ccncc4)c3O2)no1 (configuration not stated) | 6.45 µM | > 15 µM |
| CCN(CC)c1cc(C)c2cc(NC(=O)c3cccc([N+](=O)[O-])c3)ccc2n1 | > 15 µM | 0.59 µM |
| CCOCCn1c(CN(Cc2ccccc2)Cc2ccccc2)nc2c1c(=O)n(C)c(=O)n2C | > 15 µM | > 15 µM |
| Cc1sc(NC(=O)CSc2ccc(Cl)cc2)nc1-c1ccccc1 | > 15 µM | > 15 µM |
| COCCn1c(SCC(=O)Nc2cccc(F)c2)nc2c(c1=O)SC(C)C2 (configuration not stated) | > 15 µM | > 15 µM |
| N#Cc1ccc(Cn2c(=O)n(CCCC(=O)NCc3ccccc3)c(=O)c3sccc32)cc1 | > 15 µM | > 15 µM |
| COc1ccc(NC(=O)Cn2ncc3c(=O)oc4ccc(C)cc4c32)cc1 | > 15 µM | > 15 µM |
| O=C(Nc1ccc(-c2nc3ccccc3[nH]2)cc1)[C@H](Cc1ccccc1)N1Cc2ccccc2C1=O | > 15 µM | 2.56 µM |
| COc1cccc(C(=O)NC(c2ccc([N+](=O)[O-])cc2)c2c(O)ccc3ccccc23)c1 (configuration not stated) | 5.25 µM | > 15 µM |
| COc1ccc(OC)c(Nc2nc(NCCO)c3ccccc3n2)c1 | > 15 µM | > 15 µM |
| NS(=O)(=O)c1ccc(NC(=O)Cc2ccc([N+](=O)[O-])cc2)cc1 | > 15 µM | > 15 µM |
| CCOC(=O)C(C)Sc1nc2ccccc2c(=O)n1CC1CCCCC1 (configuration not stated) | > 15 µM | > 15 µM |
| COCCn1/c(=N/C(=O)CSCC(=O)Nc2cc(C)on2)sc2cc(OC)ccc21 | > 15 µM | > 15 µM |
| CCCCCC/N=C1\CC(C)(C)CC(O)=C1C(=O)CCCN1C(=O)c2ccccc2C1=O | > 15 µM | > 15 µM |

Compounds with a lower EC50 [1], results first:

| EC50 [1] | EC50 [2] | Structure (SMILES) |
| --- | --- | --- |
| 3.01 µM | 2.7 µM | COc1ccc(C2CC3=NC(C)=C(C(=O)OCC(C)C)C(c4ccc(F)cc4)C3=C(O)C2)cc1 (configuration not stated) |
| 3.05 µM | > 15 µM | Oc1ccc(Nc2nc(-c3ccccc3)c3cc(Br)ccc3n2)cc1 |
| 1.57 µM | 3.89 µM | Oc1ccc(Br)c2c1NC(c1ccc(Cl)cc1)C1CC=CC21 (configuration not stated) |
| 1.46 µM | 1.4 µM | C[n+]1ccccc1/C=C/c1ccc(Br)cc1 |
| 4.68 µM | > 15 µM | Cc1cccc(NC(=O)CSc2nc3c4ccccc4nc-3c(O)n2-c2ccc([N+](=O)[O-])cc2)c1 |
| 3.92 µM | > 15 µM | COc1ccc(C2C3=C(O)CC(c4ccccc4)CC3=NC(C)=C2C(=O)OCC(C)C)cc1OC (configuration not stated) |
| 1.53 µM | 1.13 µM | CCOc1cc(C2CC(=O)NC3=C2C(=O)CC(c2ccc(OC)cc2)C3)cc(Br)c1O (configuration not stated) |
| 4.27 µM | 3.69 µM | O=[N+]([O-])c1cccc(C2Nc3ccccc3-c3nc4ccccc4n32)c1 (configuration not stated) |
| 1.43 µM | 1.32 µM | Cc1ccc(NC(=O)C2c3ccccc3C(=O)N(CC(C)C)C2c2cccs2)nc1 (configuration not stated) |
| 0.331 µM | 7 µM | COc1ccc(C2C(C(=O)OC(C)C)=C(C)N=c3s/c(=C\c4cc(Cl)ccc4O)c(=O)n32)cc1 (configuration not stated) |
| 1.3 µM | 0.463 µM | CCC1CCCCN1CCCNC(=O)c1ccc2c(c1)sc1nc(-c3ccc(F)cc3)cn12 (configuration not stated) |
| 0.178 µM | 0.62 µM | CN(C)c1ccc(C(O)(c2ccc(N(C)C)cc2)c2ccc(N(C)C)cc2)cc1 [METHYLROSANILINE] |
| 3.77 µM | > 15 µM | O=C(N/N=C/c1ccc([N+](=O)[O-])o1)c1ccc(O)cc1 [NIFUROXAZIDE] |
| 2.22 µM | 3.78 µM | O=C(CCCCCN1C(=O)c2cccc3cccc(c23)C1=O)NO [SCRIPTAID] |
